Source: PMC10587869, “Deciphering Structural Determinants Distinguishing Active from Inactive Cell-Penetrating Peptides for Cytosolic mRNA Delivery” (Bioconjugate Chemistry, 2023)
Positions of bridges follow the written chain, without caps; N, C: chain ends. No end group written: not given here.

Tests used:
[1] = tested on: MC3T3 cells; assay: eGFP protein expression after mRNA transfection, live-cell confocal microscopy; assay type: cell-based, murine; conditions: N/P 3, eGFP mRNA, 24 h post-transfection
Procedure: (§1) Peptide-mRNA polyplexes were formulated as previously described.[40],[41] In short, two separate stock solutions of mRNA and peptide were prepared in MQ and simultaneously dispensed with electronically dispensing pipettes (E4 Electronic Pipette, LTS E4-100XLS+, Mettler-Toledo Rainin, LLC, Oakland, CA, USA) at a flow rate of 11 mL min^–1. All polyplexes were formed at a concentration of at least 10-fold the final intended concentration for transfections.
(§2) One day before mRNA transfections, 10 000 MC3T3 cells in 100 μL were seeded in 96-well plates (Greiner Bio-One Cat. No. 655180) or 20 000 cells in 200 μL in μ-slide eight-well chambers (Ibidi, Gräfelfing, Germany). These seeding densities ensured confluency between ∼70 and 90% on the day of transfection. mRNA transfections were performed by removing the complete medium from the wells and replacing it with mRNA nanoparticles diluted 10 times in complete medium. Cells were exposed to mRNA nanoparticles for 2 h at 37 °C, 5% CO2, in a humidified incubator. For some experiments, cells were stained with 200 μL of 1 μM CellTrace yellow (Thermo Fisher Scientific, Cat. No. C34567) directly after the nanoparticle incubation, according to the manufacturer’s instructions. Regardless of the tested N/P ratio or type of nanoparticle, mRNA inputs were equalized across conditions, resulting in 107 ng/well for luciferase assays in 96-well plate formats and 214 ng/well for confocal microscopy experiments. […] For untreated controls, complete cell culture medium was added and refreshed as often as in the experimental conditions.
Before microscopy, complete medium containing phenol red was replaced with an equal volume of phenol red-free and HEPES-formulated Opti-MEM (Gibco). The uptake of Cy5-eGFP mRNA-formulated nanoparticles was assessed 2 h post-transfection, and eGFP expression was assessed 24 h post-transfection. […] All laser lines were generated by a white-light laser, and emissions were detected with hybrid detectors. […]

[2] = tested on: HeLa cells; assay: Luciferase expression after SecNLuc mRNA transfection (Nano-Glo); assay type: cell-based, human
[3] = Heparin-mediated polyplex decomplexation assay (QuantiFluor RNA); assay type: physicochemical; conditions: N/P 1 and 3, low or high heparin amounts; Figure S8
Procedure: For testing the stability of mRNA polyplexes, a polyanion decomplexation assay, mediated by the polyanionic heparin (heparin sodium salt from porcine intestinal mucosa, Cat. No. H3149-100 KU, Sigma-Aldrich) was performed. mRNA polyplexes were freshly prepared with uncapped SecNLuc mRNA (RIBOPRO), as described in the section mRNA Nanoparticle Formation. Following polyplex formation, all samples were incubated for at least 30 min at room temperature. Importantly, separate stock solutions of heparin were made to ensure an equal volume across conditions regardless of heparin concentration. For decomplexation, 5 μL of 10× polyplexes were diluted in RNase-free TE-buffer at pH 7.5 (Promega, Cat. No. E260A) supplemented with an equal volume of heparin across conditions to a total volume of 50 μL in a 384-well plate (Greiner Bio-One, Cat. No. 781101). All samples were quickly spun down before incubation at 37 °C for 90 min. The QuantiFluor RNA System (Promega, Cat. No. E3310) was used with a 1:2000 dilution of RNA-binding dye for all tested conditions to detect released mRNA. For quantification, a calibration curve with uncapped SecNLuc mRNA was made, spanning from 0.19 ng mRNA/well to 50 ng mRNA/well. For detection of released mRNA, the dye was excited at 485 nm, and emission was collected at 535 nm using the VICTOR X3Multilabel Plate Reader (PerkinElmer)
Data analysis was performed using GraphPad Prism (GraphPad Software, version 8.4.2, San Diego, CA, USA). Data are presented as means ± standard deviation (SD) unless stated otherwise. Means were calculated by first averaging the technical replicates, for which outliers were identified using Grubbs’ test, followed by averaging the biological replicates. Before statistical analysis, all data were checked for normal distribution with a Shapiro–Wilk test. Statistical analysis was done using one- or two-way analysis of variance (ANOVA). Multiple comparisons were corrected using Tukey’s test with 95% confidence intervals. For the mRNA standard curve used in heparin decomplexation assays, the coefficient of variation was determined both in the standards and in samples and was ≤20%. The standard curve was fitted using a sigmoidal four-parameter logistic curve. The standard curve was back fitted with ±10% accuracy to verify the correctness of the fit. The signals from samples were blanked with the appropriate solution (TE buffer) before calculating interpolations. p > 0.05 was considered not significant, and p values were reported using the GraphPad Prism style (*p ≤ 0.05, **p ≤ 0.01, ***p ≤ 0.001, and ****p ≤ 0.0001).

[4] = tested on: MC3T3 cells; assay: Luciferase expression after SecNLuc mRNA transfection (Nano-Glo); assay type: cell-based, murine
Procedure: as §1
One day before mRNA transfections, 10 000 MC3T3 cells in 100 μL were seeded in 96-well plates (Greiner Bio-One Cat. No. 655180) or 20 000 cells in 200 μL in μ-slide eight-well chambers (Ibidi, Gräfelfing, Germany). These seeding densities ensured confluency between ∼70 and 90% on the day of transfection. mRNA transfections were performed by removing the complete medium from the wells and replacing it with mRNA nanoparticles diluted 10 times in complete medium. Cells were exposed to mRNA nanoparticles for 2 h at 37 °C, 5% CO2, in a humidified incubator. […]
The extent of luciferase production was determined using the Nano-Glo Luciferase Assay (Promega, Madison, WI, USA, Cat No. N1130) according to the manufacturer’s instructions. […] Luminescence was measured after briefly shaking the plate using the VICTOR X3Multilabel Plate Reader (PerkinElmer, Waltham, MA, USA).

[5] = tested on: MC3T3 cells; assay: Cellular uptake of Cy5-eGFP mRNA polyplexes, live-cell confocal microscopy; assay type: cell-based, murine
Procedure: as §1, §2
Before microscopy, complete medium containing phenol red was replaced with an equal volume of phenol red-free and HEPES-formulated Opti-MEM (Gibco). The uptake of Cy5-eGFP mRNA-formulated nanoparticles was assessed 2 h post-transfection, and eGFP expression was assessed 24 h post-transfection. Live-cell imaging was performed using a Leica TCS SP8 SMD (Leica Microsystems, Mannheim, Germany) with an HC PL APO CS2 63×/1.20 water objective and a temperature-controlled stage at 36.5 °C. eGFP was excited at 488 nm (emission: 500–550 nm). CellTrace yellow was excited at 555 nm (emission: 570–620 nm), and Cy5 was excited at 633 nm (emission: 650–690 nm). All laser lines were generated by a white-light laser, and emissions were detected with hybrid detectors. All channels were sequentially acquired to avoid crosstalk at a bit depth of 12. Except for the LMM eGFP conditions (reduced gain), equal acquisition settings (pixel size, pinhole, laser power, and gain) per fluorophore were used within the experiments.
Quantification of the Cy5 fluorescence was performed as previously described.[59],[60] In brief, five separate images (unless stated otherwise) containing approximately 10 cells per image were analyzed using ImageJ (version 1.53f51). A square mask of 184.52 μm^2 was used to quantify the raw integrated density (sum of all pixels in a region of interest). Importantly, cell confluencies ranged from ∼80–95%, ensuring minimal impact of cell density on total fluorescence values. The brightness and contrast of the images were adjusted to find a cell-free region to determine background fluorescence. Then, a circle was drawn to measure the background fluorescence. To obtain the corrected total cellular fluorescence (CTCF), the area (in pixels) was multiplied by the mean gray value of the background and subsequently subtracted from the raw integrated density.

[6] = Dynamic light scattering of peptide-mRNA nanoparticles; assay type: physicochemical; conditions: hLF-v1 mRNA polyplexes, context: upon polymerization; N/P not printed at the place; DLS 25 °C, no serum
Procedure: as §1
The hydrodynamic diameter of the nanoparticles was measured at 25 °C by dynamic light scattering (DLS) using a Zetasizer Nano ZS (Malvern Instruments, Worcestershire, UK) equipped with a 4 mW He–Ne laser (633 nm) with a backscatter detection angle of 173°. At least 40 μL of 10 times concentrated nanoparticle solution was measured in a UV-cuvette (BrandTech Scientific, Essex, CT, USA, Cat. No. 759200).

Sequence	eGFP protein expression [1]	luciferase expression ([2]; N/P 3, compared to untreated)	luciferase expression higher than PF14 ([2]; N/P 5) [%]	difference in heparin decomplexation [3]	luciferase expression as fraction of PF14-induced expression ([4]; MC3T3, N/P 5)	effect of oligomerization on uptake ([5]; 2 h incubation, Cy5-labeled mRNA, polymerized vs monomeric, Figure 5, Figure S5)	uptake of Cy5-labeled mRNA polyplexes of amphipathic hLF variants ([5]; 2 h incubation, live-cell confocal microscopy, serum present, Figure 5, four independent experiments)	monodisperse particle size by DLS [6] [nm]	ratio of Poly hLF-x vs Mono-hLF-x, Corrected Total Cellular Fluorescence (Cy5) ([5]; Cy5-eGFP mRNA polyplexes, 2 h post-transfection, n = 5 fields of view per condition) [x]	cellular uptake of Cy5-labeled eGFP mRNA ([5]; N/P 3 polyplexes (LMM lipoplexes), 2 h post-transfection, complete medium with 10% FBS, confocal, Figure 1, five independent experiments)	luciferase activity ([4]; MC3T3, independent of the N/P ratio (3 or 5))
KCFQWLRNLRKVRALLVSCLKR (disulfide 2-19 (inferred)) [poly hLF-v1, polymeric hLF-v1]	successful delivery	significant luciferase expression	~5	no difference	approximately half						
KCFQWLRNLRKVRALLVSCLKR [hLF-v1, amphipathic hLF variant with PF14 motifs and the same cationic amino acids as hLF-WT]	fewer cells were positive for eGFP expression than for PF14					no benefit for uptake	performed the worst and tended to aggregate upon polymerization	72 ± 2.1			
KCFQWQRNMRKVRGPPVSCIKR [hLF-WT]	no expression								2.33	only little uptake	no activity
